# Test results: patent US20180243421A1, “IMMUNOSTIMULATING AGENT” (AJINOMOTO CO., INC., priority 2015, published 2018)
# Legend:
# [1] = tested on: anti-influenza IgA antibody; assay: Transnasal influenza vaccine adjuvant activity: anti-influenza IgA antibody in nasal cavity wash; assay type: in vivo, BALB/c mice; details: Example 4, influenza HA vaccine 20 μl, SZ62 1 μg, Poly(I:C) 5 μg, two weeks from secondary immunization
# [2] = tested on: anti-OVA-specific IgG1 subclass antibody; assay: Adjuvant activity after primary immunization: anti-OVA-specific IgG1 subclass antibody in serum (Examples 13-18); assay type: in vivo, BALB/c mice; details: OVA 5 μg + 0.256 μmol in 5% αCD saline s.c., serum after 12 days; for anti-OVA-specific IgG1 subclass antibody production after primary immunization: Example 13
# Protocol: 8-Week-old female BALB/c mice were divided into groups (N=6), and each group was primarily immunized by dorsal-subcutaneous administration of (1) ovalbumin (OVA) (5 μg) dissolved in saline as an antigen (OVA single administration group), (2) OVA (5 μg) and SZ83 (0.256 μmol) dissolved or dispersed in 5% αCD-added saline (SZ83 administration group), (3) OVA (5 μg) and SZ84 (0.256 μmol) dissolved or dispersed in 5% αCD-added saline (SZ84 administration group), (4) OVA (5 μg) and SZ86 (0.256 μmol) dissolved or dispersed in 5% αCD-added saline (SZ86 administration group), (5) OVA (5 μg) and SZ89 (0.256 μmol) dissolved or dispersed in 5% αCD-added saline (SZ89 administration group), (6) OVA (5 μg) and SZ90 (0.256 μmol) dissolved or dispersed in 5% αCD-added saline (SZ90 administration group), each per mouse. After 12 days, blood samples were collected under anesthesia, and the obtained serum samples were subjected to the measurement of an anti-OVA-specific IgG1 subclass antibody.
# Measurement Method of Concentration of anti-OVA-specific IgG1 Subclass Antibody and anti-OVA-specific IgG2a Subclass Antibody
# To a 96 well plate was added 5 μg/ml OVA at 100 μl/well, and the mixture was incubated at 4° C. overnight. After incubation, the mixture was washed three times with 200 μl of PBS-T (PBS+0.05% (v/v) Tween 20) per well, and blocked with 100 μl of 5% FCS/PBS solution per well at room temperature for 1 to for 2 hr. Thereafter, the mixture was washed three times with PBS-T (200 μl/well), a diluted serum sample (100 μl/well) or the same amount of 5% FCS/PBS solution as a control was added, to and the mixture was incubated at 37° C. for 1 hr. To calculate concentration of the antibody, the standard of an anti-OVA-specific IgG1 subclass antibody diluted with 2% FCS/PBS solution was added at 100 ng/ml, 50 ng/ml, 25 ng/ml, 12.5 ng/ml, 6.25 ng/ml, 3.125 ng/ml, 1.56 ng/ml, 0.781 ng/ml, 0.391 ng/ml, 0.195 ng/ml, 0.098 ng/ml, 0 ng/ml, per 1 well. When an anti-OVA-specific IgG2a subclass antibody was measured, the standard of an anti-OVA-specific IgG2a subclass antibody was added at 50 ng/ml, 25 ng/ml, 12,5 ng/ml, 6.25 ng/ml, 3.125 ng/ml, 1.56 ng/ml, 0.781 ng/ml, 0.391 ng/ml, 0.195 ng/ml, 0.098 ng/ml, 0.049 ng/ml, 0 ng/ml, per 1 well. […] Thereafter, the mixture was washed five times with PBS-T (200 μl/well), a diluted anti-biotin-HRP antibody was added (100 μl/well), and the mixture was incubated at 37° C. for another 30 min. Thereafter, the mixture was washed five times with PBS-T (200 μl/well), TMB substrate solution was added (100 μl/well), and the mixture was incubated at room temperature for 10- for 15 min. Thereafter, a reaction quenching liquid (2N sulfuric acid solution) was added (50 μl/well) to discontinue a color developing reaction, and the absorbance (OD Value=450 nm) was measured by a microplate reader. A standard curve was drawn from the measured OD values, and the concentration was calculated.
# 8-Week-old female BALB/c mice were divided into groups (N=6), and each group was primarily immunized by dorsal-subcutaneous administration of (1) ovalbumin (OVA) (5 μg) dissolved in saline as an antigen (OVA single administration group), (2) OVA (5 μg) and SZ92 (0.256 μmol) dissolved or dispersed in 5% αCD-added saline (SZ92 administration group), (3) OVA (5 μg) and SZ94 (0.256 μmol) dissolved or dispersed in 5% αCD-added saline (SZ94 administration group), (4) OVA (5 μg) and SZ95 (0.256 μmol) dissolved or dispersed in 5% αCD-added saline (SZ95 administration group), (5) OVA (5 μg) and SZ96 (0.256 μmol) dissolved or dispersed in 5% αCD-added saline (SZ96 administration group), each per mouse. After 12 days, blood samples were collected under anesthesia, and the obtained serum samples were subjected to the measurement of anti-OVA-specific IgG1 subclass antibody.
molecule,measurement,setting,value
"polyinosinic polycytidylic acid [Poly(I:C), reference compound]",anti-influenza IgA antibody production in nasal cavity wash as compared to the influenza vaccine single administration group,[1],a significant increase was not found
"CCCCCCCCCCCCCCCC(=O)N1CCC[C@H]1C(=O)OC [SZ95, N-hexadecanoyl-L-proline methyl ester]",anti-OVA-specific IgG1 subclass antibody production after primary immunization as compared to the OVA single administration group,[2]; Example 14,tended to increase
"CCCCCCCCCCCCCCCC(=O)N[C@@H](Cc1c[nH]cn1)C(=O)OC [SZ94, N-hexadecanoyl-L-histidine methyl ester]",anti-OVA-specific IgG1 subclass antibody production after primary immunization as compared to the OVA single administration group,[2]; Example 14,tended to increase
"CCCCCCCCCCCCCCCC(=O)N[C@@H](CO)C(=O)OC [SZ96, N-hexadecanoyl-L-serine methyl ester]",anti-OVA-specific IgG1 subclass antibody production after primary immunization as compared to the OVA single administration group,[2]; Example 14,tended to increase
"CCCCCC(=O)N[C@@H](CC(C)C)C(=O)OC [SZ84, N-hexanoyl-L-leucine methyl ester]",anti-OVA-specific IgG1 subclass antibody production after primary immunization,[2],show a tendency to increase
"CCCCCCCCCCCCCCCC(=O)N[C@@H](CCC(=O)O)C(=O)OCCCCCC [SZ134, N-hexadecanoyl-L-glutamic acid hexyl ester]",anti-OVA-specific IgG1 subclass antibody production after primary immunization as compared to the OVA single administration group,[2]; Example 18,tended to increase
"COC(=O)[C@H](CC(C)C)NC(C)=O [SZ83, N-acetyl-L-leucine methyl ester]",anti-OVA-specific IgG1 subclass antibody production after primary immunization,[2],show a tendency to increase
"CCCCCCCCCCCCCCCCCCCCCC(=O)N[C@@H](CCCNC(=N)N)C(=O)OCCCCCC.Cl [SZ121, N^2-docosanoyl-L-arginine hexyl ester hydrochloride salt]",anti-OVA-specific IgG1 subclass antibody production after primary immunization as compared to the OVA single administration group,[2]; Example 17,significantly increased
